Test results taken from publication PMC8465649, “Semaphorin 3A—Glycosaminoglycans Interaction as Therapeutic Target for Axonal Regeneration” (Pharmaceuticals, 2021).

Tests used:
[1] = Concentration-dependent 1H NMR and DOSY NMR (aggregation); assay type: physicochemical; conditions: DOSY NMR and spectra at increasing concentrations
Source text: (§1) As a simple way to characterize the GAG binding behavior, we applied the method previously described by Jiao et al., using the cationic dye known as methylene blue (MB) in a colorimetric competition assay. To compare with our previous results for SICHI, we performed similar experimental design and data analysis, using the charge excess at 50% of MB displacement (CE50) as the parameter to compare the respective binding abilities. The four peptoids rendered very similar CE50 values (CE50 = 1.5–1.8, Figure 6a), reflecting the equivalent charge states. However, CSIC02 reached saturation (complete MB displacement) with a lower number of equivalents, which can be due to its slightly larger molecular size that may cause a more efficient interference with MB binding. Next, we assessed the integrity and solubility of CSIC02 by NMR. To characterize its tendency to aggregate in aqueous solution, NMR spectra at increasing concentrations were acquired which show the same sharp signals under all conditions (Figure S13). […] Direct binding of CSIC02 to GAGs was qualitatively assessed by specific NMR experiments.
Figure S13. Concentration-dependent NMR spectra of CSIC02 and 1H DOSY NMR spectrum of 0.2 mM CSIC02 in presence of 0.5 mM caffeine. […] The spectra were processed with MNova software and the measured diffusion coefficients from DOSY […]

[2] = WaterLOGSY NMR direct binding to heparin agarose; conditions: 1D 1H WaterLOGSY
Procedure: Figure 6 (a) Chemical structures of triprotonated SICHI and CSIC02–04, as the main species in aqueous medium at neutral pH, and relative increase in MB absorbance at 665 nm versus charge ratio after the addition of the peptoids to the preformed MB/heparin complex (4.71 µM Hep repeating units + 9.83 µM MB in 5 mM Tris buffer at pH = 7.5). (b) 1D ^1H WaterLOGSY NMR experiments showing that CSIC02 binds to heparin agarose resin (used as a GAG mimetic).
As a simple way to characterize the GAG binding behavior, we applied the method previously described by Jiao et al., using the cationic dye known as methylene blue (MB) in a colorimetric competition assay. […] Next, we assessed the integrity and solubility of CSIC02 by NMR. […] Direct binding of CSIC02 to GAGs was qualitatively assessed by specific NMR experiments.
Next, 1D ^1H T1ρ relaxation filtered and WaterLOGSY NMR experiments were acquired at 25 °C on a 500-MHz spectrometer (Varian Inova; Agilent Technologies, Santa Clara, CA, USA) equipped with an AutoX inverse double-resonance probe with a z-shielded pulsed-field gradient coil. […] The experiments were recorded using the standard pulse sequence in the (WLOGSY_ES) Chempack library, with excitation sculpting to suppress water resonances. […]

[3] = NMR competition (WaterLOGSY / spin-lock filtered 1H): displacement of FS2/FS3 peptides from heparin agarose resin; assay type: binding; conditions: WaterLOGSY; 1:1 peptoid/FS2, both 1 mM; pH 7.5
Procedure: NMR competition experiments involved the acquisition of 1D-^1H WaterLOGSY or spin-lock filtered NMR spectra. Thus, FS2 peptide is displaced from heparin agarose resin by CSIC02 (1:1 peptoid/FS2, both 1 mM), but not by CSIC03 (Figure S15). […] We reasoned that if CSIC02 was able to interact with GAG and displace FS2/FS3 basic peptides, it may also interfere with SCTWT–heparin interaction. To investigate if CSIC02 could displace SCTWT from heparin dp14 and to define the SCTWT residues affected, 2D NMR ^1H-^15N HSQC CSP experiments were used. Figure 8a illustrates the chemical shift effects of CSIC02 addition to a sample of SCTWT containing dp14 heparin. […] In Figure 8b, we display the chemical shift perturbation of SCTWT NMR spectra in the presence of dp14 and CSIC02. Thus, as the two CSP plots in Figure 4b and Figure 8b were calculated using as reference SCTWT alone in solution, we can compare them directly. […] Moreover, splitting of signals for some residues (R733, R734, and Q735 in the first GAG-binding region) was observed (Figure 8c). This observation is compatible with the presence of different species in slow chemical exchange in solution, with partial detachment of SCTWT from heparin. The amount of CSIC02 used in these experiments can be rationalized considering that the SCTWT has ca. 12 positive charges at neutral pH (Figure S18), while CSIC02 is tricationic. Since the binding is mediated by ionic polar interactions, a large excess of CSIC02 is needed to counterbalance the SCTWT-dp14 binding.
Next, 1D ^1H T1ρ relaxation filtered and WaterLOGSY NMR experiments were acquired at 25 °C on a 500-MHz spectrometer (Varian Inova; Agilent Technologies, Santa Clara, CA, USA) equipped with an AutoX inverse double-resonance probe with a z-shielded pulsed-field gradient coil. The samples were prepared in a 5-mm Wilmad NMR 528-PP tubes with 10 mM Tris-d11 (for peptide/GAG samples) and 150 mM NaCl dissolved in 90% H2O/10% D2O at pH 7.5. All spectra were obtained with a sweep width of 8 kHz and 16,384 acquired data points. The experiments were recorded using the standard pulse sequence in the (WLOGSY_ES) Chempack library, with excitation sculpting to suppress water resonances. For Water-LOGSY experiments, the first water-selective 180° pulse was 25 ms long. The spectra were acquired with 1200 transients and a spin-lock pulse of 50 ms at 3.7 kHz. To phase Water-LOGSY spectra correctly, it is necessary to use an internal reference compound. In our case, the reference is the residual ethanol absorbed/bonded in heparin-agarose resin (this interaction was previously confirmed with T1ρ filtered experiments), which appears as a positively phased signal. […]

[4] = 1D 1H NMR titration with chondroitin sulfate; assay type: binding; conditions: increasing amounts of CS, pH 7.5
Source text: as §1
Figure S14. CSIC02 spectra with increasing amount of Chondroitin sulfate from shark
cartilage (0,5, 1,0. 1,5, 2,0. 2,5 and 3,0 mg). Spectra were acquired in 10 mM Tris-HCl/150
(1 picture or pasted object on this page, not shown here)

binding to heparin agarose (qualitative) [2]: binding | displacement of FS2 peptide from heparin agarose resin [3]: displaced
SMILES: CCN(CC)CCN(CC(=O)N(CCN1CCCC1)CC(=O)N(CCC1CCCN1C)CC(N)=O)C(=O)OCc1ccccc1 (stereo not shown) [CSIC02]
tendency to aggregate in aqueous solution [1]: absence of higher molecular weight aggregates | binding to chondroitin sulfate (qualitative) [4]: progressive shifting of CSIC02 resonances
